The values that follow are results of earlier work, collected in patent US20050182074A1 (Pfizer Inc., priority 2004, published 2005).

The conditions of data set [1]: AIDS patient on antiretroviral drugs, voriconazole added.
The conditions of data set [2]: steady state pharmacokinetics of voriconazole.

With `CC(C)CN(C[C@@H](O)[C@H](Cc1ccccc1)NC(=O)O[C@H]1CCOC1)S(=O)(=O)c1ccc(N)cc1` [amprenavir], the “plasma concentration on addition of voriconazole” value in data set [1] is given as “elevated plasma concentrations”. Regarding `Cc1ccnc2c1NC(=O)c1cccnc1N2C1CC1` [nevirapine], in data set [1], the “plasma concentration on addition of voriconazole” value was “elevated plasma concentrations”. In the case of `COc1ccc2[nH]c([S+]([O-])Cc3ncc(C)c(OC)c3C)nc2c1` (stereo not drawn) [omeprazole], the “effect on voriconazole exposure” value in data set [2] is on record as “no clinically relevant effect”.
